Species: Rattus norvegicus
Assay: Open TG-GATES - Regimen: Daily Repeat
Assay type: toxicity, organism-based, Sprague-Dawley
Design: regimen Daily Repeat, gender Male, age 6 weeks
Conditions: in vivo, po, 75 mg/kg, route gavage, dose level Low; for APTT / Bas / Eos / Fbg / Hb / Ht / Lym / MCH / MCHC / MCV / Mono / Neu / PT / Plat / RBC / Ret / WBC: tissue Blood; for KIDNEY_L / KIDNEY_R / KIDNEY_TOTAL: tissue Kidney; for LIVER: tissue Liver; for A/G / ALP / ALT / AST / BUN / CRE / Ca / Cl / DBIL / GLC / IP / K / LDH / Na / PL / RALB / TBIL / TC / TG / TP / gamma-GTP: tissue Plasma

CN(C/C=C/C#CC(C)(C)C)Cc1cccc2ccccc12 [TERBINAFINE]
TERMINAL_BW (72 h, time 3 day): 243.4 g
APTT (72 h, time 3 day): 18.6 s
Bas (72 h, time 3 day): 0.8%
Eos (72 h, time 3 day): 0.8%
Fbg (72 h, time 3 day): 233.4 mg/dL
Hb (72 h, time 3 day): 13.4 g/dL
Ht (72 h, time 3 day): 39.5%
Lym (72 h, time 3 day): 80.4%
MCH (72 h, time 3 day): 21.7 pg
MCHC (72 h, time 3 day): 33.7%
MCV (72 h, time 3 day): 64.3 fL
Mono (72 h, time 3 day): 2.8%
Neu (72 h, time 3 day): 15.4%
PT (72 h, time 3 day): 11.5 s
Plat (72 h, time 3 day): 121.6 x10_4/uL
RBC (72 h, time 3 day): 615.4 x10_4/ul
Ret (72 h, time 3 day): 6.2%
WBC (72 h, time 3 day): 111.7 x10_2/uL
KIDNEY_L (72 h, time 3 day): 1.1 g
KIDNEY_R (72 h, time 3 day): 1.1 g
KIDNEY_TOTAL (72 h, time 3 day): 2.1 g
LIVER (72 h, time 3 day): 12.1 g
A/G (72 h, time 3 day): 1.7
ALP (72 h, time 3 day): 854 IU/L
ALT (72 h, time 3 day): 35.2 IU/L
AST (72 h, time 3 day): 67.2 IU/L
BUN (72 h, time 3 day): 14.2 mg/dL
CRE (72 h, time 3 day): 0.4 mg/dL
Ca (72 h, time 3 day): 10.8 mg/dL
Cl (72 h, time 3 day): 103.6 meq/L
DBIL (72 h, time 3 day): 0.1 mg/dL
GLC (72 h, time 3 day): 190.8 mg/dL
IP (72 h, time 3 day): 7.3 mg/dL
K (72 h, time 3 day): 4.2 meq/L
LDH (72 h, time 3 day): 214.6 IU/L
Na (72 h, time 3 day): 141.2 meq/L
PL (72 h, time 3 day): 156 mg/dL
RALB (72 h, time 3 day): 3.6 g/dL
TBIL (72 h, time 3 day): 0.2 mg/dL
TC (72 h, time 3 day): 80.6 mg/dL
TG (72 h, time 3 day): 113.4 mg/dL
TP (72 h, time 3 day): 5.7 g/dL
gamma-GTP (72 h, time 3 day): 2 IU/L
TERMINAL_BW ([…], time 7 day): 274.5 g
TERMINAL_BW ([…], time 14 day): 333.7 g
TERMINAL_BW ([…], time 28 day): 399 g
APTT ([…], time 7 day): 19.2 s
Bas ([…], time 7 day): 1%
Eos ([…], time 7 day): 0.6%
Fbg ([…], time 7 day): 226 mg/dL
Hb ([…], time 7 day): 13.9 g/dL
Ht ([…], time 7 day): 40.6%
Lym ([…], time 7 day): 83%
MCH ([…], time 7 day): 21.7 pg
MCHC ([…], time 7 day): 34.3%
MCV ([…], time 7 day): 63.5 fL
Mono ([…], time 7 day): 2.4%
Neu ([…], time 7 day): 13.2%
PT ([…], time 7 day): 11.9 s
Plat ([…], time 7 day): 130.9 x10_4/uL
RBC ([…], time 7 day): 640.8 x10_4/ul
Ret ([…], time 7 day): 5.2%
WBC ([…], time 7 day): 112.5 x10_2/uL
APTT ([…], time 14 day): 20.1 s
Bas ([…], time 14 day): 1%
Eos ([…], time 14 day): 1%
Fbg ([…], time 14 day): 219.4 mg/dL
Hb ([…], time 14 day): 14.6 g/dL
Ht ([…], time 14 day): 42.7%
Lym ([…], time 14 day): 79.8%
MCH ([…], time 14 day): 20.6 pg
MCHC ([…], time 14 day): 34%
MCV ([…], time 14 day): 60.4 fL
Mono ([…], time 14 day): 2.6%
Neu ([…], time 14 day): 15.4%
PT ([…], time 14 day): 11.3 s
Plat ([…], time 14 day): 129 x10_4/uL
RBC ([…], time 14 day): 707.4 x10_4/ul
Ret ([…], time 14 day): 4%
WBC ([…], time 14 day): 118.9 x10_2/uL
APTT ([…], time 28 day): 21.8 s
Bas ([…], time 28 day): 0.8%
Eos ([…], time 28 day): 1%
Fbg ([…], time 28 day): 210.8 mg/dL
Hb ([…], time 28 day): 15 g/dL
Ht ([…], time 28 day): 42.9%
Lym ([…], time 28 day): 80.6%
MCH ([…], time 28 day): 19.7 pg
MCHC ([…], time 28 day): 34.8%
MCV ([…], time 28 day): 56.7 fL
Mono ([…], time 28 day): 2.2%
Neu ([…], time 28 day): 15%
PT ([…], time 28 day): 12.2 s
Plat ([…], time 28 day): 114.8 x10_4/uL
RBC ([…], time 28 day): 758.2 x10_4/ul
Ret ([…], time 28 day): 2.7%
WBC ([…], time 28 day): 135.9 x10_2/uL
KIDNEY_L ([…], time 7 day): 1.2 g
KIDNEY_R ([…], time 7 day): 1.2 g
KIDNEY_TOTAL ([…], time 7 day): 2.4 g
KIDNEY_L ([…], time 14 day): 1.3 g
KIDNEY_R ([…], time 14 day): 1.3 g
KIDNEY_TOTAL ([…], time 14 day): 2.5 g
KIDNEY_L ([…], time 28 day): 1.5 g
KIDNEY_R ([…], time 28 day): 1.6 g
KIDNEY_TOTAL ([…], time 28 day): 3.1 g
LIVER ([…], time 7 day): 13.1 g
LIVER ([…], time 14 day): 15.1 g
LIVER ([…], time 28 day): 17.5 g
A/G ([…], time 7 day): 1.6
ALP ([…], time 7 day): 944.6 IU/L
ALT ([…], time 7 day): 36.6 IU/L
AST ([…], time 7 day): 72.8 IU/L
BUN ([…], time 7 day): 16.2 mg/dL
CRE ([…], time 7 day): 0.4 mg/dL
Ca ([…], time 7 day): 10.6 mg/dL
Cl ([…], time 7 day): 103.8 meq/L
DBIL ([…], time 7 day): 0.1 mg/dL
GLC ([…], time 7 day): 188.2 mg/dL
IP ([…], time 7 day): 7.1 mg/dL
K ([…], time 7 day): 4.4 meq/L
LDH ([…], time 7 day): 217.6 IU/L
Na ([…], time 7 day): 142 meq/L
PL ([…], time 7 day): 152.8 mg/dL
RALB ([…], time 7 day): 3.6 g/dL
TBIL ([…], time 7 day): 0.2 mg/dL
TC ([…], time 7 day): 76.2 mg/dL
TG ([…], time 7 day): 112.8 mg/dL
TP ([…], time 7 day): 5.8 g/dL
gamma-GTP ([…], time 7 day): 1 IU/L
A/G ([…], time 14 day): 1.5
ALP ([…], time 14 day): 875.8 IU/L
ALT ([…], time 14 day): 36.8 IU/L
AST ([…], time 14 day): 71.4 IU/L
BUN ([…], time 14 day): 17.6 mg/dL
CRE ([…], time 14 day): 0.4 mg/dL
Ca ([…], time 14 day): 10.8 mg/dL
Cl ([…], time 14 day): 103.8 meq/L
DBIL ([…], time 14 day): 0.1 mg/dL
GLC ([…], time 14 day): 206.6 mg/dL
IP ([…], time 14 day): 7.2 mg/dL
K ([…], time 14 day): 3.8 meq/L
LDH ([…], time 14 day): 168.2 IU/L
Na ([…], time 14 day): 142.4 meq/L
PL ([…], time 14 day): 140.4 mg/dL
RALB ([…], time 14 day): 3.5 g/dL
TBIL ([…], time 14 day): 0.2 mg/dL
TC ([…], time 14 day): 65.4 mg/dL
TG ([…], time 14 day): 123 mg/dL
TP ([…], time 14 day): 5.9 g/dL
gamma-GTP ([…], time 14 day): 0.8 IU/L
A/G ([…], time 28 day): 1.3
ALP ([…], time 28 day): 602 IU/L
ALT ([…], time 28 day): 41.4 IU/L
AST ([…], time 28 day): 76.2 IU/L
BUN ([…], time 28 day): 17.2 mg/dL
CRE ([…], time 28 day): 0.5 mg/dL
Ca ([…], time 28 day): 10.3 mg/dL
Cl ([…], time 28 day): 104.4 meq/L
DBIL ([…], time 28 day): 0.086 mg/dL
GLC ([…], time 28 day): 223.4 mg/dL
IP ([…], time 28 day): 7.2 mg/dL
K ([…], time 28 day): 4.1 meq/L
LDH ([…], time 28 day): 230.6 IU/L
Na ([…], time 28 day): 141 meq/L
PL ([…], time 28 day): 127.2 mg/dL
RALB ([…], time 28 day): 3.4 g/dL
TBIL ([…], time 28 day): 0.2 mg/dL
TC ([…], time 28 day): 64.8 mg/dL
TG ([…], time 28 day): 87.4 mg/dL
TP ([…], time 28 day): 6.1 g/dL
gamma-GTP ([…], time 28 day): 1.2 IU/L
